SMILES strings stand for the structures.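 Five compound concentrations were applied to cells in 96-well plates for 48 hours; endpoints were derived by simple linear interpolation of the resulting dose-response curve. Here, GI50 denotes the concentration required for 50% inhibition of growth. TGI: total growth inhibition.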

These results are taken from PubChem BioAssay (NCI).

Holding throughout (assay): inhibition of tumour cell growth, NCI panel, 48 h
Assay [1] concerns SNB-19 CNS.
The subject of assay [2] is OVCAR-5 ovarian.
Assay [3] concerns K-562 leukemia.
The test system of assay [4] is OVCAR-4 ovarian.
Assay [5] has as its system COLO 205 colon.
The test system of assay [6] is HCT-15 colon.
Assay [7] relates to SF-268 CNS.
Assay [8] relates to SK-OV-3 ovarian.

Turning to `CO[C@@]1(c2ccccc2)O[C@H]2OCCC2[C@H]1c1ccc(Cl)cc1` (stereo not given in full), the TGI in assay [1] was over 100 µM; in assay [2] it was over 100 µM; in assay [3] it was over 100 µM; in assay [4] it was 91.1 µM; in assay [5] it was 42.2 µM; in assay [6] it was over 100 µM. For the same compound, the TGI in assay [7] is over 100 µM.
For the compound `C=C1C[C@@H]2C[C@@H](C)CC(O)[C@]2(CCCN)C1O` (stereo not given in full), the TGI in assay [1], in assay [2], in assay [3], in assay [4], in assay [5] and in assay [7] was over 100 µM throughout. The compound also gave a TGI in assay [8] of over 100 µM.
Regarding `COc1ccc(OC(C)C(=O)O)c2c(=O)ccccc12` (stereo not given), the TGI in assay [1], in assay [2], in assay [3], in assay [4], in assay [5] and in assay [6] was over 100 µM throughout. For the same compound, the TGI in assay [7] and in assay [8] was over 100 µM each time.
In the case of `CCC(CO)Nc1nc2c(c(=O)n(C)c(=O)n2C)n1CCO` (stereo not given), the TGI in assay [1], in assay [2], in assay [3], in assay [5], in assay [6] and in assay [7] was over 100 µM in each case. The compound further had a TGI in assay [8] of over 100 µM.
In the case of `C1=CCCC=CCC1.C[PH+](C)C.C[PH+](C)C.C[PH+](C)C.[Cl-].[Ir]`, the GI50 is over 100 µM in assay [2]; 26.6 µM in assay [3]; 67.8 µM in assay [4]; over 100 µM in assay [6]; over 100 µM in assay [8]. For the same compound, the TGI in assay [2], in assay [3], in assay [4], in assay [6] and in assay [8] was over 100 µM throughout.
For `COc1ccc([C@@H]2OC(=O)C3C2C(=O)O[C@H]3c2ccc(OC)c(OC)c2)cc1OC` (stereo not given in full), the TGI in assay [1], in assay [3], in assay [4], in assay [5], in assay [6] and in assay [7] was over 100 µM each time. For the same compound, the TGI in assay [8] is over 100 µM.
For `COc1cc2cnc3c4cc(OCc5ccccc5)ccc4ccc3c2cc1OC`, the TGI in assay [1] is over 100 µM; in assay [2] it was over 100 µM; in assay [3], over 100 µM; in assay [4] it was 39.8 µM; in assay [5], 74.9 µM; in assay [6], over 100 µM. Moreover, the TGI is over 100 µM in assay [7] and 56.8 µM in assay [8].
On to `COc1cc(/C=N/N=C(\N)NO)c([N+](=O)[O-])cc1OC`, for which the TGI in assay [1], in assay [2], in assay [3], in assay [4], in assay [5] and in assay [6] was over 100 µM each time. The TGI was 99.2 µM in assay [7] and over 100 µM in assay [8].
For `COC(=O)C1CCc2nnc(-c3ccccc3)n21` (stereo not given), the TGI in assay [1], in assay [2], in assay [3], in assay [4], in assay [5] and in assay [6] was over 100 µM in each case. Besides, the TGI in assay [7] is over 100 µM.
Consider `O=c1c2cc3ccccc3n2c(=O)c2cc3ccccc3n12`, for which the TGI in assay [1], in assay [2], in assay [3], in assay [4], in assay [6] and in assay [7] was over 100 µM throughout.
Turning to `CC1=CCCC2C(C=O)(C1)CC(C)C2(CO)CC/C(=C/CO)CO` (stereo not given), the TGI in assay [3], in assay [5], in assay [6] and in assay [8] was over 100 µM each time.
In the case of `c1ccc(OC2=NC3=S(S2)SC(Oc2ccccc2)=N3)cc1`, the TGI in assay [1] turned out to be 45.1 µM; in assay [2] it was 41.9 µM; in assay [3], 38 µM; in assay [5], 37.2 µM; in assay [6], 43.3 µM; in assay [7] it was 57.6 µM. The TGI in assay [8] was found to be 65.2 µM.
For `COC(=O)N/N=C(\C)CC(=O)Nc1ccc(Cl)cc1`, the TGI in assay [2], in assay [3], in assay [5], in assay [7] and in assay [8] was over 100 µM throughout.
`CCC[CH2][Sn]1([CH2]CCC)[S]CC[N]1S(=O)(=O)c1ccc(C)cc1`: the GI50 in assay [1] is 1.45 µM; in assay [2] it was 2.82 µM; in assay [3], 0.341 µM; in assay [4], 1.85 µM; in assay [5] it was 1.63 µM; in assay [6], 1.51 µM. In addition, in assay [7], the GI50 was 1.19 µM. The TGI in assay [1] is 2.75 µM; in assay [2], 6.12 µM; in assay [3], 1.97 µM; in assay [4], 3.27 µM; in assay [5], 3.09 µM; in assay [6], 2.93 µM. In assay [7], this compound returned a TGI of 2.54 µM.
